Reference: US10906894B2, “Compounds containing benzo[d][1,3]oxathiole, benzo[d][1,3]oxathiole 3-oxide or benzo[d][1,3]oxathiole 3,3-dioxide and methods/uses thereof as agonists of g protein-coupled receptor 119” (PRAMANA PHARMACEUTICALS INC., priority 2016, dated 2021)

Tests used:
GPR119 [1] = target: T1, GPR119 (Homo sapiens, UniProt Q8TDV5); assay: LANCE Ultra cAMP assay: stimulation of GPR119-mediated cAMP production in CHO cells stably expressing human GPR119 receptor; assay type: cell-based; conditions: for Emax: CHO, read-out: % cAMP Max.
T1 sequence (Q8TDV5 1-335): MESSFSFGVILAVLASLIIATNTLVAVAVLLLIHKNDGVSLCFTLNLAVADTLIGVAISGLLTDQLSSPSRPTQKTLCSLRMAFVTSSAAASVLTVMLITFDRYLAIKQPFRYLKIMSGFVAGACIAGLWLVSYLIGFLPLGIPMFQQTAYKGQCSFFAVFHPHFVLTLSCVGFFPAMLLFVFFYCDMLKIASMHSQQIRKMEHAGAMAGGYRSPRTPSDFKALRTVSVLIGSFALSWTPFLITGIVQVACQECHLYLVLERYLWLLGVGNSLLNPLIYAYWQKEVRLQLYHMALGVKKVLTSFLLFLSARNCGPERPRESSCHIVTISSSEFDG
Procedure: The potency of GPR119 receptor agonists was assessed by measuring the stimulation of GPR119-mediated cAMP production with LANCE Ultra cAMP assay (Perkin Elmer, TRF0264) in CHO cells stably expressing human GPR119 receptor (Chantest, cat. #A633). CHO-GPR119 cells were cultured in DMEM/F12 medium supplemented with 10% FBS and 1% NEAA at 37° C., 5% CO2, aliquoted and frozen in liquid nitrogen.
(§1) For assay, cells were thawed in a water bath at 37° C., washed in Hank's Balanced Salt Solution (HBSS) and resuspended in Stimulation Buffer 1 (SB1) for 30 min: 5 mM HEPES, pH 7.2-7.4, 0.1% BSA in HBSS. […] The ULight-anti-cAMP antibody (Perkin Elmer, TRF0264) was added to the cell suspension making Mix [Cell suspension/4× ULight-anti-cAMP antibodies]. […] The assay plate was centrifuged 200 g, 5 sec.
Serial dilution (100×) of tested compounds were prepared in DMSO in the range of from 30 nM to 1 mM with half-log step in 384-well plates (Greiner, 781280) using Biomek 2000. 10 test concentrations in two repeats were prepared for each CRC. […] The assay plate was incubated 30 minutes at room temperature on a shaker, 250 rpm to allow GPR119 receptor stimulation. The cAMP level was determined according to the standard kit supplier protocol (PerkinElmer, cat. #TRF0264).
(§2) The stock solution of the Eu-cAMP tracer (Perkin Elmer, TRF0264) was diluted 1:100 in cAMP Detection Buffer (Perkin Elmer, TRF0264), making 2× working concentration and added to the assay plate, 10 μL per well. Assay plate was centrifuged 180 g, 1 sec. Then the assay plate was incubated for 60′ at room temperature on shaker, 250 rpm to allow cAMP detection. The TR-FRET signal was measured at Ex-340 nm/Em-615 and Ex-340 nm/Em-665 nm on the reader Tecan M1000. 0% of cAMP stimulation corresponds to the cells with DMSO only, 100% of cAMP stimulation corresponds to the cells with 10 uM Forskolin. The EC50 value defined as the concentration of the drug that gives half-maximal response, were calculated using GraphPad Prizm 5.0 software with forskolin was used as references at each test. Entries 1-17 in Table A-2 show the biological activity of certain representative compounds using the protocol as described above.
as §1, with “cell suspension,” for “cell suspension”
as §2, with “1-14” for “1-17”, “B-2” for “A-2”

GPR119 [2] = target: T1, GPR119; assay: PathHunter β-arrestin assay (enzyme fragment complementation, β-galactosidase reporter) monitoring activation of GPR119; assay type: cell-based; set-up: β-galactosidase enzyme fragment for EFC (by own knowledge the ProLink tag, fused to the receptor's C-terminus in PathHunter lines); conditions: for EC50: Table B-3; for Emax: Table B-3, read-out: % cAMP Max.
Procedure: Certain test compounds were evaluated using the PathHunterR β-arrestin assay, which monitors the activation of GPR119 in a homogenous, non-imaging assay format using the enzyme fragment complementation (EFC) technology (DiscoverX Corporation, Fremont, Calif. U.S.A.; www.discoverx.com) with β-galactosidase as the functional reporter.

[3] = Table B-2 entries 15-39, modified protocol, 500 cells/well
[4] = reference ligands in modified protocol, 500 cells/well

| Compound | EC50 (GPR119 [1]; Table B-2 entries 1-14, protocol as described (800 000 cells/mL, 5 uL/well), CHO-GPR119 cells) | EC50 (GPR119 [2]) | Emax (GPR119 [2]) | Emax (GPR119 [1]; [3]) | EC50 (GPR119 [1]; [3]) | EC50 (GPR119 [1]; [4]) | maximum cAMP stimulation (GPR119 [1]; [4]) |
| --- | --- | --- | --- | --- | --- | --- | --- |
| [O-][S@@+]1COc2cc(-c3ccc(OCC4CCN(c5ncc(Cl)cn5)CC4)c(F)c3)ccc21 [Example B-34, (R)-6-(4-((1-(5-chloropyrimidin-2-yl)piperidin-4-yl)methoxy)-3-fluorophenyl)-2H-benzo[d][1,3]oxathiole-3-oxide] | 0.9 nM | 35.7 nM | 172% | – | – | – | – |
| CC(C)c1cnc(N2CCC(COc3ccc(-c4ccc5c(c4)OC[S@@+]5[O-])cc3F)CC2)nc1 [Example B-46, (S)-6-(3-fluoro-4-((1-(5-isopropylpyrimidin-2-yl)piperidin-4-yl)methoxy)phenyl)-2H-benzo[d][1,3]oxathiole 3-oxide] | – | 7.9 nM | 164% | 82% | 10.1 nM | – | – |
| COc1cnc(N2CCC(COc3ccc(-c4ccc5c(c4)OC[S@@+]5[O-])cc3F)CC2)nc1 [Example B-50, (S)-6-(3-Fluoro-4-((1-(5-methoxypyrimidin-2-yl)piperidin-4-yl)methoxy)phenyl)-2H-benzo[d][1,3]oxathiole 3-oxide] | – | 16.4 nM | 169% | 66% | 3.7 nM | – | – |
| [O-][S@+]1COc2cc(-c3ccc(OCC4CCN(c5ncc(Cl)cn5)CC4)c(F)c3)ccc21 [Example B-59, (S)-6-(4-((1-(5-Chloropyrimidin-2-yl)piperidin-4-yl)methoxy)-3-fluorophenyl)-2H-benzo[d][1,3]oxathiole 3-oxide] | – | 6.7 nM | 175% | 70% | 1.7 nM | – | – |
| CCc1cnc(N2CC[C@H](COc3ccc(-c4ccc5c(c4)OC[S@@+]5[O-])cc3F)C2)nc1 [Example B-75, (S)-6-(4-(((S)-1-(5-Ethylpyrimidin-2-yl)pyrrolidin-3-yl)methoxy)-3-fluorophenyl)-2H-benzo[d][1,3]oxathiole 3-oxide] | – | 60 nM | 190% | 88% | 17.7 nM | – | – |
| CCc1ccnc(N2CC[C@H](COc3ccc(-c4ccc5c(c4)OC[S@@+]5[O-])cc3F)C2)n1 [Example B-84, (S)-6-(4-(((S)-1-(4-Ethylpyrimidin-2-yl)pyrrolidine-3-yl)methoxy)-3-fluorophenyl)-2H-benzo[d][1,3]oxathiole 3-oxide] | – | 567 nM | 117% | 92% | 31.5 nM | – | – |
| CCc1ccnc(N2CC[C@H](COc3ccc(-c4ccc5c(c4)OC[S@+]5[O-])cc3F)C2)n1 [Example B-85, (R)-6-(4-(((S)-1-(4-Ethylpyrimidin-2-yl)pyrrolidine-3-yl)methoxy)-3-fluorophenyl)-2H-benzo[d][1,3]oxathiole 3-oxide] | – | 657 nM | 73% | 64% | 13 nM | – | – |
| [O-][S@@+]1COc2cc(-c3ccc(OC[C@H]4CCN(c5ncc(Cl)cn5)C4)c(F)c3)ccc21 [Example B-86, (R)-6-(4-(((S)-1-(5-Chloropyrimidin-2-yl)pyrrolidine-3-yl)methoxy)-3-fluorophenyl)-2H-benzo[d][1,3]oxathiole 3-oxide] | – | 108 nM | 133% | 93% | 4.6 nM | – | – |
| CCc1cnc(N2CC[C@H](COc3ccc(-c4ccc5c(c4)OC[S@@+]5[O-])cc3)C2)nc1 [Example B-91, (S)-6-(4-(((S)-1-(5-Ethylpyrimidin-2-yl)pyrrolidine-3-yl)methoxy)phenyl)-2H-benzo[d][1,3]oxathiole 3-oxide] | – | 222 nM | 155% | 93% | 10.3 nM | – | – |
| CCCCCCCC/C=C\CCCCCCCC(=O)NCCO [oleoyl ethanolamide, reference compound] | – | – | – | – | – | 592 nM | 100% |
